Where two headings read alike, the source gives them in different places.
Experiments:
[1] = target: Cys242 in human PIK3CA (157-299) (Homo sapiens (Human), UniProt P42336); experiment: Covalent modification assay using MALDI-TOF MS; format: biochemical; settings: 4 h reaction time point
How it was run: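 PIK3CA (157-299) at 3.33 μM or 1 μM in 20 mM HEPES, 150 mM NaCl, 2 mM MgCl2, pH 7.3 was incubated with compound (from 10 mM DMSO stocks) in the dark at room temperature for 15 min, 30 min, 2 h or 4 h. Linear-mode MALDI-TOF peak heights gave percent modification.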

[2] = system: pAKT in BT474 cells; experiment: Cell-based pAKT HTRF assay in BT474 cells; settings: BT474 cells, 4 hr incubation, read-out: pAKT inhibition IC50 in BT474 cells
How it was run: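 Treatment lasts 4 hr in DMEM/10% FBS at 0.25% DMSO over nine 3-fold dilutions from 3 μM. The lysate is then probed by HTRF.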

[3] = 1 μM protein target, 1:5 protein to compound ratio (compounds 853-1279)
[4] = 3.33 μM protein target, 1:7.5 protein to compound ratio (compounds 1-852)

Cys242 in human PIK3CA (157-299), sequence (P42336 157-299): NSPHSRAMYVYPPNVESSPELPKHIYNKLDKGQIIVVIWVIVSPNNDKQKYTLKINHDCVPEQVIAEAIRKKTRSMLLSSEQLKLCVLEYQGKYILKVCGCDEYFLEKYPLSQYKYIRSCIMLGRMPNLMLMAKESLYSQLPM

| Structure (SMILES) | % of modification [1, 3] | IC50 ([2]; Compounds 10-999) [nM] | % of modification [1, 4] | IC50 ([2]; Compounds 1000-1279) [nM] | IC50 ([2]; Homo sapiens, BT-474, Compounds 10-999) [nM] |
| --- | --- | --- | --- | --- | --- |
| C=CC(=O)N1CCn2nc(-c3nc(-c4ccc(=O)n(C)c4)c4ccsc4c3-c3c(F)cc(F)cc3OCCO)cc2C1C (stereo not drawn) [Compound 872] | A (percent of modification of PIK3CA protein ≥75%) | < 100 | – | – | – |
| C=CC(=O)N1CCn2nc(-c3nc(-c4ccc5c(c4)CCNC5=O)c4ccsc4c3-c3ccc(F)cc3OC(C)C)nc2C1 [Compound 219] | – | < 100 | A (percent of modification of PIK3CA protein ≥75%) | – | – |
| C=CC(=O)N1CCn2nc(-c3nc(-c4cnc5cn(C)nc5c4)c4ccsc4c3-c3c(F)cc(F)cc3OCCOC)cc2C1C (stereo not drawn) [Compound 912] | A (percent of modification of PIK3CA protein ≥75%) | < 100 | – | – | – |
| C=CC(=O)N1CCn2nc(-c3nc(-c4ccc5c(c4)CCNC5)c4ccsc4c3-c3ccc(F)cc3OC(F)F)cc2C1 [Compound 222] | – | < 100 | A (percent of modification of PIK3CA protein ≥75%) | – | – |
| C=CC(=O)N1CCn2nc(-c3nc(-c4ccc5c(c4)CCC5N(C)C)c4ccsc4c3-c3c(F)cc(F)cc3OCCOC)cc2C1C (stereo not drawn) [Compound 1182] | A (percent of modification of PIK3CA protein ≥75%) | – | – | < 100 | – |
| C=C(F)C(=O)N1CCn2nc(-c3nc(-c4ccc5c(c4)CNC5=O)c4ccsc4c3-c3ccc(Cl)cc3OC(C)C)cc2C1 [Compound 361] | – | < 100 | A (percent of modification of PIK3CA protein ≥75%) | – | – |
| C=CC(=O)N1CC(n2cc(-c3nc(N4CC5CNCC5C4)c4ccsc4c3-c3ccc(F)cc3OCCOC)cn2)C1 (stereo not drawn) [Compound 134] | – | 1000 to 3000 | B (50%<percent of modification <75%) | – | – |
| C=CC(=O)N1CCn2nc(-c3nc(-c4cnn(C)c4)c4ccsc4c3-c3ccc(F)cc3OC(F)F)cc2C1 [Compound 224] | – | < 100 | A (percent of modification of PIK3CA protein ≥75%) | – | – |
| C=CC(=O)N1CCc2ncc(-c3nc(-c4ccc(=O)n(C(F)F)c4)c4ccsc4c3-c3c(F)cc(F)cc3OC(C)C)cc2C1 [Compound 335] | – | < 100 | A (percent of modification of PIK3CA protein ≥75%) | – | – |
| C=CC(=O)N1CCc2c(nc(-c3nc(-c4ccc5c(c4)CCNC5)c4ccsc4c3-c3ccc(F)cc3OCCOC)n2C)C1 [Compound 99] | – | < 100 | A (percent of modification of PIK3CA protein ≥75%) | – | – |
| C=CC(=O)N1CCn2nc(-c3nc(C4CCN(C(C)C)CC4)c4ccsc4c3-c3ccc(F)cc3OCCOC)cc2C1 [Compound 220] | – | < 100 | A (percent of modification of PIK3CA protein ≥75%) | – | – |
| C=CC(=O)N1Cc2cc(-c3nc(-c4cnc5c(c4)CN(C)C5=O)c4ccsc4c3-c3c(F)cc(F)cc3OCCOC)nn2[C@@H](C)C1 [Compound 506] | – | < 100 | A (percent of modification of PIK3CA protein ≥75%) | – | – |
| C=CC(=O)N1CCn2nc(-c3nc(-c4ccc(OCCN5CC(F)(F)C5)cc4)c4ccsc4c3-c3c(F)cc(F)cc3OCCOC)cc2C1C (stereo not drawn) [Compound 1062] | A (percent of modification of PIK3CA protein ≥75%) | – | – | < 100 | – |
| C=CC(=O)N1CCn2nc(-c3nc(-c4cnn(C)c4)c4ccsc4c3-c3c(F)cc(F)cc3OCCOC)cc2[C@H]1C [Compound 584] | – | < 100 | A (percent of modification of PIK3CA protein ≥75%) | – | – |
| C=CC(=O)N1CCn2nc(-c3nc(-c4ccc5c(c4)CCN(C(C)C)C5)c4ccsc4c3-c3ccc(F)cc3OCCOC)nc2C1 [Compound 185, 1-[2-[7-[4-fluoro-2-(2-methoxyethoxy)phenyl]-4-(2-isopropyl-3,4-dihydro-1H-isoquinolin-6-yl)thieno[3,2-c]pyridin-6-yl]-6,8-dihydro-5H-[1,2,4]triazolo[1,5-a]pyrazin-7-yl]prop-2-en-1-one] | – | – | A (percent of modification of PIK3CA protein ≥75%) | – | < 100 |
| C=CC(=O)N1CCc2nc(-c3nc(-c4cnc(C)s4)c4ccsc4c3-c3c(F)cc(F)cc3OCCOC)sc2C1 [Compound 431] | – | 100 to 1000 | A (percent of modification of PIK3CA protein ≥75%) | – | – |
| C=CC(=O)N1Cc2cc(-c3nc(-c4ccc5c(c4)CCN(C)C5)c4ccsc4c3-c3c(F)cc(F)cc3OCCO)nn2[C@@H](C)C1 [Compound 483] | – | < 100 | A (percent of modification of PIK3CA protein ≥75%) | – | – |
| C=CC(=O)N1CCc2nc(-c3nc(-c4ccc(=O)n(C(F)F)c4)c4ccsc4c3-c3c(F)cc(F)cc3OC(C)C)sc2C1 [Compound 347] | – | 100 to 1000 | A (percent of modification of PIK3CA protein ≥75%) | – | – |
| C=CC(=O)N1CCc2nc(-c3nc(-c4ccc(N5CCN(C)CC5)nc4)c4ccsc4c3-c3c(F)cc(F)cc3OCCOC)sc2C1 [Compound 976] | A (percent of modification of PIK3CA protein ≥75%) | < 100 | – | – | – |
| C=CC(=O)N1CCn2nc(-c3nc(-c4ccc(=O)n(CC(F)F)c4)c4ccsc4c3-c3ccc(F)cc3OCCOC)cc2C1 [Compound 266] | – | < 100 | A (percent of modification of PIK3CA protein ≥75%) | – | – |
| C=CC(=O)N1Cc2cc(-c3nc(-c4ccc5nn(C)cc5c4)c4ccsc4c3-c3c(F)cc(F)cc3OCC(C)(C)O)nn2[C@@H](C)C1 [Compound 881] | A (percent of modification of PIK3CA protein ≥75%) | < 100 | – | – | – |
| C=CC(=O)N1Cc2cc(-c3nc(-c4ccc5cn(C)nc5c4)c4ccsc4c3-c3c(F)cc(F)cc3OCCOC)nn2[C@@H](C)C1 [Compound 742] | – | < 100 | A (percent of modification of PIK3CA protein ≥75%) | – | – |
| C=CC(=O)N1CCc2ncc(-c3nc(-c4cnc5c(c4)CNC(=O)C5)c4ccsc4c3-c3ccc(F)cc3OCCOC)cc2C1 [Compound 117] | – | < 100 | A (percent of modification of PIK3CA protein ≥75%) | – | – |
| C=CC(=O)N1CCc2nc(-c3nc(-c4ccc5c(c4)CCNC5)c4ccsc4c3-c3ccc(F)cc3OCC3CC3)sc2C1 [Compound 161] | – | < 100 | A (percent of modification of PIK3CA protein ≥75%) | – | – |
| C=CC(=O)N1Cc2cc(-c3nc(-c4ccc5ncn(C)c5c4)c4ccsc4c3-c3c(F)cc(F)cc3OCC(C)O)nn2CC1C (stereo not drawn) [Compound 765] | – | < 100 | A (percent of modification of PIK3CA protein ≥75%) | – | – |
| C=CC(=O)N1CCn2nc(-c3nc(-c4ccc5c(c4)CNC5=O)c4ccsc4c3-c3c(F)cc(F)cc3OCCO)cc2C1C (stereo not drawn) [Compound 891] | A (percent of modification of PIK3CA protein ≥75%) | < 100 | – | – | – |
| C=CC(=O)N1Cc2cc(-c3nc(-c4ccc5nn(C)cc5c4)c4ccsc4c3-c3c(F)cc(F)cc3OCCO)nn2CC1C (stereo not drawn) [Compound 832] | – | < 100 | A (percent of modification of PIK3CA protein ≥75%) | – | – |
| C=CC(=O)N1CCn2nc(-c3nc(-c4cnn(C)c4)c4ccsc4c3-c3ccc(F)cc3OC(C)C)c(C)c2C1 [Compound 320] | – | < 100 | A (percent of modification of PIK3CA protein ≥75%) | – | – |
| C=CC(=O)N1CCc2nc(-c3nc(-c4cnn(CCO)c4)c4ccsc4c3-c3ccc(F)cc3OCCOC)sc2C1 [Compound 126] | – | < 100 | A (percent of modification of PIK3CA protein ≥75%) | – | – |
| C=CC(=O)N1Cc2cc(-c3nc(-c4cnnc(C)c4)c4ccsc4c3-c3c(F)cc(F)cc3OCCO)nn2C(C)C1 (stereo not drawn) [Compound 787] | – | 100 to 1000 | D (percent of modification <25%) | – | – |
